{"source": "patent US20110152343A1", "about": "“PROTEASE INHIBITORS AND BROAD-SPECTRUM ANTIVIRAL” (Functional Genetics, Inc., priority 2009, published 2011)", "system": "RSV", "assay": "RSV infection, timing of administration (production of virus particles)", "data": [{"smiles": "N=C(N)c1ccc2oc(/C=C/c3nc4ccc(C(=N)N)cc4[nH]3)cc2c1", "note": "[NSC 369723]", "values": [{"measurement": "inhibition of the production of virus particles (pfu/ml)", "setting": "administration by roughly 18 hours after infection with RSV", "value": "much reduced or lost"}, {"measurement": "inhibition of the production of virus particles (pfu/ml)", "setting": "administration from about 6-12 hours after infection with RSV", "value": "moderately inhibited"}]}]}
